SMILES strings stand for the structures. Read-outs that look alike come from different tables or passages of the source.

The text below walks through data of article PMC10108742, “Design, synthesis and evaluation of OA-tacrine hybrids as cholinesterase inhibitors with low neurotoxicity and hepatotoxicity against Alzheimer’s disease” (Journal of Enzyme Inhibition and Medicinal Chemistry, 2023).

In one series the target is T1, hBuChE (Homo sapiens, UniProt P06276).
T1 construct: purchased Sigma Aldrich
The experiment in a line: hBuChE inhibition, Ellman's method. Type of series: biochemical. The conditions noted are these: hBuChE from human serum, mean ± SD of three experiments. As to the method:
hAChE, hBuChE, Acetylcholinesterase Activity Assay Kit and Butyrylcholinesterase Activity Assay Kit were purchased from Sigma Aldrich. […] The capacity of all the target compounds to inhibit hAChE and hBuChE activities were assessed by Ellman’s method. […] Results are expressed as the mean ± SD of at least three different experiments performed in triplicate.
Preparation of 50 mM Tris–HCl buffer solutions: 5 ml Tris solution (1 M, Ph 8.5, Beyotime Biotechnology) was dissolved in distilled water (95 ml) and adjusted with HCl to a pH of 8.0 ± 0.1. Buffer was freshly prepared and stored in the refrigerator. […] All solutions were stored in Eppendorf caps in the refrigerator or freezer, if necessary. […] The final concentrations for the enzymatic assay were yielded by diluting the stock solution with bi-distilled water.
(§1) A mixture of the DTNB solution (160 µL), enzyme solution (50 µL) and compounds solutions (10 µL, 3 different concentrations and once blank water) was prepared and incubated at 37 °C for 10 min. The substrate (30 µL) was added to start the enzymatic reaction. […] All measurements were performed as triplicates.

Another series addresses T2, hAChE (Homo sapiens, UniProt P22303).
T2 construct: purchased Sigma Aldrich
The experiment in a line: biochemical. How it is done: The capacity of all the target compounds to inhibit hAChE and hBuChE activities were assessed by Ellman’s method. […] Results are expressed as the mean ± SD of at least three different experiments performed in triplicate.
Buffer was freshly prepared and stored in the refrigerator. […] All solutions were stored in Eppendorf caps in the refrigerator or freezer, if necessary. […] The final concentrations for the enzymatic assay were yielded by diluting the stock solution with bi-distilled water.
as §1

Series [1] relates to HepG2 cells. Kind of series: Intracellular ROS production in HepG2 cells, DCFH-DA, flow cytometry. To be noted: 50 μM, compared with control / tacrine group. How it is done:
The percentage of cells for ROS was stained with DCFH-DA and the stained cells were immediately determined by flow cytometry.
The level of intracellular ROS was measured by using the ROS-sensitive dye, 2′,7′-dichloro-fluorescein diacetate (DCFH-DA), as a probe. In brief, cells were seeded in six-well plates at 2.0 × 10^5 cells/well, treating with different tested compounds for 24 h, and then washed three times and incubated with final concentration of 10 μM DCFH-DA for 30 min at 37 °C in the dark. After incubation, cells were washed three times and harvested in free-serum medium. […] Data were processed by using cell quest software (Becton & Dickinson Company, Franklin Lakes, NJ).
A general note: Flow cytometry measures light scatter and fluorescence of single cells or particles in a stream.

The test system of series [2] is HepG2 cells. Kind of series: Cell viability in HepG2 cells, CCK-8 assay. The conditions noted are these: 24 h. How it is done:
(§2) Figure 5. Effects of various concentrations of compounds on cell viability in SH-SY5Y cells and HepG2 cells after treatment for 24 h. Cell viability was measured by CCK-8 assay. Data were shown as mean ± SD of three independent experiments.
(§3) HepG2 and SH-SY5Y cells were obtained from the Cell Bank of Shanghai Institute of Biochemistry and Cell Biology, Chinese Academy of Sciences (Shanghai, China). HepG2 and SH-SY5Y cells were cultured in MEM or MEM/F12 supplemented with 10% FBS, 100 units mL^−1 penicillin/streptomycin and maintained in a humidified atmosphere of 5% CO2 at 37 °C. Initially, 8000 cells per well were seeded in 96-well plates for HepG2 or SH-SY5Y cells, then treated with vehicle alone or tested compounds for 24 h. Then 10 μL CCK8 purchased from CELLCOOK was added to each well and further incubated for another 3 h. The absorbance was measured using a microplate reader (450 nm).
On the technique in general: Tetrazolium assays rely on reduction of a dye to a coloured formazan, in cell work by metabolically active cells.

The subject of the next series is SH-SY5Y cells. The experiment in a line: Cell viability in SH-SY5Y cells, CCK-8 assay. To be noted: 24 h. How it is done:
as §2, §3

The subject of series [3] is HepG2 cells. Kind of series: Apoptosis in HepG2 cells, AnnexinV/PI double staining, flow cytometry. The conditions noted are these: 50 μM, 24 h, control group 4.34%. How it is done:
Figure 6. […] Apoptotic cells detected by flow cytometry after AnnexinV and PI double staining.
Annexin V-FITC and propidium iodide were used to evaluate apoptotic cells by flow cytometry. Cells were treated with different concentrations of tested compounds for 24 h. Then the cells were washed twice with phosphate-buffered saline (PBS) (centrifugation at 2000 rpm, 5 min). The collected cells were then resuspended in 500 μL of binding buffer. After stained with 5 μL AnnexinV-FITC and 5 μL propidium iodide at room temperature for 15 min. Cells were then analysed by BD Accuri C6 flow cytometer with cell quest software (Becton & Dickinson Company, Franklin Lakes, NJ). Cells undergoing apoptosis are both Annexin V positive and PI negative.

Where [4] appears, read: hAChE from human erythrocytes, mean ± SD of three experiments.

T1 sequence (P06276 29-602): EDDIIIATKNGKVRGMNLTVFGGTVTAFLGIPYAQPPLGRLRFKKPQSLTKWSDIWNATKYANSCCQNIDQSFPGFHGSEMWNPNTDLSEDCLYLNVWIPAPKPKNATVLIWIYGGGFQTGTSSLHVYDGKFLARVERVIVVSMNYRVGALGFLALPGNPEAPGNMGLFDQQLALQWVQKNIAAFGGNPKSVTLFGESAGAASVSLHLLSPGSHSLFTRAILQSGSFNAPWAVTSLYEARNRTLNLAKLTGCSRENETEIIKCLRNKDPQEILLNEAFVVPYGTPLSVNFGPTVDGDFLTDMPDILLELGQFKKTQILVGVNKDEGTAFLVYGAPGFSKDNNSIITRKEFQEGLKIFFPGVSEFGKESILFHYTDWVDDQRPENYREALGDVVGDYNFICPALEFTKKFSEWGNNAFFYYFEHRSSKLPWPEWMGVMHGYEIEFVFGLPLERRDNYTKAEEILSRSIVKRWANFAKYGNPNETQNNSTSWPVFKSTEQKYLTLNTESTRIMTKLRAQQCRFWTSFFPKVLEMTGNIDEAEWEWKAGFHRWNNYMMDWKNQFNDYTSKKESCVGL
T2 sequence (P22303 32-614): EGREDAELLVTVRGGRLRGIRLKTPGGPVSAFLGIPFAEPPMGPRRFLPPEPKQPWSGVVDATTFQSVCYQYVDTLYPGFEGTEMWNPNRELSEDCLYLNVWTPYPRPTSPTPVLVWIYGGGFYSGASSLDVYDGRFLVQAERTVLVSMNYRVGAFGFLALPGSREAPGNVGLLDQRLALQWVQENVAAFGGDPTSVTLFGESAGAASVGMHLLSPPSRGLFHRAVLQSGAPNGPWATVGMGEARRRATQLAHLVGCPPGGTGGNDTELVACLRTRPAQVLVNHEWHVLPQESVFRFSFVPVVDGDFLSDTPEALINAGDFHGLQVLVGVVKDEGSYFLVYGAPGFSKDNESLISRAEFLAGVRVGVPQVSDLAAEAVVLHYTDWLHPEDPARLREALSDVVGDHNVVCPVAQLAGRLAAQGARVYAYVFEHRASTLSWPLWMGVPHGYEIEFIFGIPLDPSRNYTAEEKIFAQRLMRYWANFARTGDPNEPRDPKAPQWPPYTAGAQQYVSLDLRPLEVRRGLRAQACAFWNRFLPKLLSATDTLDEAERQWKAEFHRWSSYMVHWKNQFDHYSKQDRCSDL

In the case of `CC1(C)CC[C@]2(C(=O)NCCCCCNc3c4c(nc5ccccc35)CCCC4)CC[C@]3(C)C(=CCC4[C@@]5(C)CC[C@H](O)C(C)(C)C5CC[C@]43C)C2C1` (stereo partly drawn) [Compound A3], on hBuChE (read-out: IC50 hBuChE), the IC50 – broadly, the point on the concentration scale where inhibition reaches its midpoint – was 2.78 ± 0.0607 µM. Besides, at hAChE, the midpoint of inhibition, the IC50, lay at 0.775 ± 0.28 µM and the “SI (selectivity index, hBuChE/hAChE)” value is 3.59.
In the case of `CC1(C)CC[C@]2(C(=O)NCCCNc3c4c(nc5c(Cl)cccc35)CCCC4)CC[C@]3(C)C(=CCC4[C@@]5(C)CC[C@H](O)C(C)(C)C5CC[C@]43C)C2C1` (stereo partly drawn) [Compound C2, N-(3-((5-chloro-1,2,3,4-tetrahydroacridin-9-yl)amino)propyl)-olean-12-en-28-amide], the IC50 on hBuChE (read-out: IC50 hBuChE) and against hAChE was > 10 µM throughout.
Take `CC1(C)CC[C@]2(C(=O)NCCNc3c4c(nc5cc(F)ccc35)CCCC4)CC[C@]3(C)C(=CCC4[C@@]5(C)CC[C@H](O)C(C)(C)C5CC[C@]43C)C2C1` (stereo partly drawn) [Compound F1, N-(2-((6-fluoro-1,2,3,4-tetrahydroacridin-9-yl)amino)ethyl)-olean-12-en-28-amide]: the IC50 at hBuChE (read-out: IC50 hBuChE) and against hAChE was > 10 µM in each case.
As for `CC1(C)CC[C@]2(C(=O)NCCCCCCNc3c4c(nc5c(F)cccc35)CCCC4)CC[C@]3(C)C(=CCC4[C@@]5(C)CC[C@H](O)C(C)(C)C5CC[C@]43C)C2C1` (stereo partly drawn) [Compound G5, N-(6-((5-fluoro-1,2,3,4-tetrahydroacridin-9-yl)amino)hexyl)-olean-12-en-28-amide], the IC50 on hBuChE (read-out: IC50 hBuChE) was 3.81 ± 1.04 µM; on hAChE, > 10 µM. For the same compound, on hAChE, the “SI (selectivity index, hBuChE/hAChE)” value is <0.38.
`CC1(C)CC[C@]2(C(=O)NCCCCCCNc3c4c(nc5cc(Cl)ccc35)CCCC4)CC[C@]3(C)C(=CCC4[C@@]5(C)CC[C@H](O)C(C)(C)C5CC[C@]43C)C2C1` (stereo partly drawn) [Compound B4]: the “intracellular ROS levels (in words)” value in the series with HepG2 cells [1] is “significantly lower than that in the tacrine group”. The IC50 was > 10 µM on hBuChE (IC50 hBuChE) and 0.0144 ± 0.00189 µM on hAChE. In addition, the “SI (selectivity index, hBuChE/hAChE)” value on hAChE is reported as >695.89. In addition, the “HepG2 cell viability rate” value with HepG2 cells [2] (50 μM) is on record as “close to that of the control group”. For the same compound, in the series on SH-SY5Y cells (50 μM), the “effect on SH-SY5Y cell viability” value is “little effect”. Moreover, in the series on HepG2 cells [3], the “percentage of apoptotic cells” value was 7.69%.
`CC1(C)CC[C@]2(C(=O)NCCCNc3c4c(nc5c(F)cccc35)CCCC4)CC[C@]3(C)C(=CCC4[C@@]5(C)CC[C@H](O)C(C)(C)C5CC[C@]43C)C2C1` (stereo partly drawn) [Compound G2]: the IC50 is 0.921 ± 0.0587 µM against hBuChE (IC50 hBuChE) and > 10 µM on hAChE. The “SI (selectivity index, hBuChE/hAChE)” value at hAChE was <0.09.
For the compound `CC1(C)CC[C@]2(C(=O)NCCCCNc3c4c(nc5cc(F)ccc35)CCCC4)CC[C@]3(C)C(=CCC4[C@@]5(C)CC[C@H](O)C(C)(C)C5CC[C@]43C)C2C1` (stereo partly drawn) [Compound F3, N-(4-((6-fluoro-1,2,3,4-tetrahydroacridin-9-yl)amino)butyl)-olean-12-en-28-amide], the IC50 at hBuChE (IC50 hBuChE) and against hAChE (setting [4]) was > 10 µM in each case.
In the case of `CC1(C)CC[C@]2(C(=O)NCCNc3c4c(nc5cc(Br)ccc35)CCCC4)CC[C@]3(C)C(=CCC4[C@@]5(C)CC[C@H](O)C(C)(C)C5CC[C@]43C)C2C1` (stereo partly drawn) [Compound D1, N-(2-((6-bromo-1,2,3,4-tetrahydroacridin-9-yl)amino)ethyl)-olean-12-en-28-amide], the IC50 at hBuChE (read-out: IC50 hBuChE) and on hAChE was > 10 µM in each case.
On to `CC1(C)CC[C@]2(C(=O)NCCCCCCNc3c4c(nc5c(Br)cccc35)CCCC4)CC[C@]3(C)C(=CCC4[C@@]5(C)CC[C@H](O)C(C)(C)C5CC[C@]43C)C2C1` (stereo partly drawn) [Compound E5, N-(6-((5-bromo-1,2,3,4-tetrahydroacridin-9-yl)amino)hexyl)-olean-12-en-28-amide], for which the IC50 on hBuChE (read-out: IC50 hBuChE) and on hAChE was > 10 µM each time.
As for `Nc1c2c(nc3ccccc13)CCCC2` [Tacrine], the “intracellular ROS levels (in words)” value with HepG2 cells [1] is “significant hepatotoxicity”. Further, the “cytotoxicity to HepG2 cells (cell viability)” value in the series on HepG2 cells [2] (50–100 μM) is on record as “cytotoxic”. The “cytotoxicity to SH-SY5Y cells (cell viability)” value in the series on SH-SY5Y cells (50–100 μM) is recorded as “cytotoxic”. Also, in the series with HepG2 cells [3], the “percentage of apoptotic cells” value was 18.90%.
As for `CC1(C)CC[C@]2(C(=O)NCCCNc3c4c(nc5cc(F)ccc35)CCCC4)CC[C@]3(C)C(=CCC4[C@@]5(C)CC[C@H](O)C(C)(C)C5CC[C@]43C)C2C1` (stereo partly drawn) [Compound F2], the half-inhibitory concentration (IC50) at hBuChE (IC50 hBuChE) and at hAChE was > 10 µM each time.
As to `CC1(C)CC[C@]2(C(=O)NCCNc3c4c(nc5c(Cl)cccc35)CCCC4)CC[C@]3(C)C(=CCC4[C@@]5(C)CC[C@H](O)C(C)(C)C5CC[C@]43C)C2C1` (stereo partly drawn) [Compound C1, N-(2-((5-chloro-1,2,3,4-tetrahydroacridin-9-yl)amino)ethyl)-olean-12-en-28-amide], the IC50 on hBuChE (read-out: IC50 hBuChE) and on hAChE was > 10 µM throughout.
On to `CC1(C)CC[C@]2(C(=O)NCCCCCNc3c4c(nc5c(F)cccc35)CCCC4)CC[C@]3(C)C(=CCC4[C@@]5(C)CC[C@H](O)C(C)(C)C5CC[C@]43C)C2C1` (stereo partly drawn) [Compound G4, N-(5-((5-fluoro-1,2,3,4-tetrahydroacridin-9-yl)amino)pentyl)-olean-12-en-28-amide], for which, at hBuChE (read-out: IC50 hBuChE), the IC50 was 1.6 ± 0.0904 µM. Further, on hAChE, the IC50 was > 10 µM and the “SI (selectivity index, hBuChE/hAChE)” value was <0.16.
Take `CC1(C)CC[C@]2(C(=O)NCCCNc3c4c(nc5c(Br)cccc35)CCCC4)CC[C@]3(C)C(=CCC4[C@@]5(C)CC[C@H](O)C(C)(C)C5CC[C@]43C)C2C1` (stereo partly drawn) [Compound E2]: the IC50 against hBuChE (IC50 hBuChE) and against hAChE (setting [4]) was > 10 µM throughout.
